Experimental data: ChEMBL document CHEMBL4765331, “Amides of pyrrole- and thiophene-fused anthraquinone derivatives: A role of the heterocyclic core in antitumor properties” (Eur J Med Chem, 2020)
Activity calls are given as the source filed them. The calls are words filed in the database; no cut-off is given here.

What was measured:
[1] = Selectivity index, ratio of IC50 for human TERT-RPE1 cells to IC50 for human NCI-H460 cells; assay type: toxicity; details: TERT-RPE1 cells and NCI-H460 cells, read-out: Ratio IC50
K562 [2] = assay: Antiproliferative activity against human K562 cells assessed as inhibition of cell proliferation measured after 72 hrs by MTT assay; assay type: functional, cell-based; details: K562, 72 h
[3] = Selectivity index, ratio of IC50 for human TERT-RPE1 cells to IC50 for human CAPAN-1 cells
[4] = Selectivity index, ratio of IC50 for human TERT-RPE1 cells to IC50 for human HCT-116 cells; assay type: toxicity; details: TERT-RPE1 cells and HCT-116 cells, read-out: Ratio IC50
Calf thymus DNA [5] = assay: Binding affinity to calf thymus DNA assessed as binding constant by scatchard plot analysis; details: Bos taurus
TERT-RPE1 = assay: Cytotoxicity against human TERT-RPE1 cells assessed as inhibition of cell proliferation measured after 72 hrs by MTT assay; assay type: cell-based; details: RPE-1, 72 h
[6] = Antiproliferative activity against P-gp-positive/doxorubicin-resistant human K562/4 cells assessed as inhibition of cell proliferation measured after 72 hrs by MTT assay; assay type: functional; details: K562/4, 72 h
K562 [7] = assay: Induction of apoptosis in human K562 cells assessed as necrotic cells at 1.6 uM measured after 48 hrs by Annexin V-APC/PI staining based flow cytometry assay (reference value: 3.9%); assay type: functional
K562 [8] = assay: Induction of apoptosis in human K562 cells assessed as early apoptotic cells at 1.6 uM measured after 48 hrs by Annexin V-APC/PI staining based flow cytometry assay (reference value: 3.4%); assay type: functional
CAPAN-1 = assay: Antiproliferative activity against human CAPAN-1 cells assessed as inhibition of cell proliferation measured after 72 hrs by MTT assay; assay type: functional, cell-based; details: CAPAN-1, 72 h
HCT-116 [9] = assay: Antiproliferative activity against human HCT-116 cells with inactivated p53 gene assessed as inhibition of cell proliferation measured after 72 hrs by MTT assay; assay type: functional, cell-based; details: HCT-116, 72 h
[10] = Toxicity in ip dosed BDF1 mouse xenografted with mouse P388 cells administered qd for 5 days; assay type: organism-based; details: in vivo, time 5 day
HCT-116 [11] = assay: Antiproliferative activity against human HCT-116 cells assessed as inhibition of cell proliferation measured after 72 hrs by MTT assay; assay type: functional, cell-based; details: HCT-116, 72 h
K562 [12] = assay: Induction of apoptosis in human K562 cells assessed as necrotic cells at 1.6 uM measured after 24 hrs by Annexin V-APC/PI staining based flow cytometry assay (reference value: 3.9%); assay type: functional
K562 [13] = assay: Induction of oxidative stress in human K562 cells assessed as increase in intracellular ROS generation at 1.6 uM measured after 40 mins by Deep Red dye based flow cytometry method; assay type: functional, cell-based
HL-60 = assay: Antiproliferative activity against human HL-60 cells assessed as inhibition of cell proliferation measured after 72 hrs by MTT assay; assay type: functional, cell-based; details: HL-60, 72 h
K562 [14] = assay: Induction of apoptosis in human K562 cells assessed as viable cells at 1.6 uM measured after 24 hrs by Annexin V-APC/PI staining based flow cytometry assay (reference value: 85.9%); assay type: functional; details: read-out: Activity
Calf thymus DNA [15] = assay: Binding affinity to calf thymus DNA assessed as DNA intercalation by measuring decrease of negative DNA band at 245 nm at 50 uM by circular dichroism spectral analysis; assay type: tissue-based; details: Bos taurus
[16] = biological target: T1, DNA topoisomerase 1 (Homo sapiens) (UniProt P11387); assay: Inhibition of human topoisomerase 1-mediated relaxation of supercoiled plasmid using pBR322 plasmid as substrate at 40 uM measured after 30 mins by ethidium bromide dye based agarose gel electrophoresis method
T1 sequence (whole entry): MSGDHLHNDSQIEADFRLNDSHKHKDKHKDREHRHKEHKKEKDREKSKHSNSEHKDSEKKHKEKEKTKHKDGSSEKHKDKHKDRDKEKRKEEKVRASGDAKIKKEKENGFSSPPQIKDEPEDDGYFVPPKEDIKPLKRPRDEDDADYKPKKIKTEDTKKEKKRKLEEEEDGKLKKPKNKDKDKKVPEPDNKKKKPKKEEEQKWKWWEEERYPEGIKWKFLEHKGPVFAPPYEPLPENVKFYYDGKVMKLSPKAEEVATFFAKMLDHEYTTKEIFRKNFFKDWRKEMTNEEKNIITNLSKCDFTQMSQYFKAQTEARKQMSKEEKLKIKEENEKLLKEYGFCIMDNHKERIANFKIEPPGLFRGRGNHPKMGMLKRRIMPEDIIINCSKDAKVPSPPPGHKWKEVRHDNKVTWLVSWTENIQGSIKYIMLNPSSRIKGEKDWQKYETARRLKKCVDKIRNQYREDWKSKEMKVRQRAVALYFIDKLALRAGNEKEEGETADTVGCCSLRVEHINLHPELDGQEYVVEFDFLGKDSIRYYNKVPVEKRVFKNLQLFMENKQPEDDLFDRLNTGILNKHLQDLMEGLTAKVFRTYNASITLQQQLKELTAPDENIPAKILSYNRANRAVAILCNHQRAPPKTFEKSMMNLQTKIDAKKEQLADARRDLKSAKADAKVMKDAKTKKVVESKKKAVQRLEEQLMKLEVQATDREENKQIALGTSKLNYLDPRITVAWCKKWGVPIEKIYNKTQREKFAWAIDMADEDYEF

[17] = Drug uptake in P-gp-positive/doxorubicin-resistant human K562/4 cells; assay type: ADME
[18] = Drug uptake in human K562i/S9 cells harboring exogenously expressed MDR1/Pgp; assay type: ADME, cell-based
Calf thymus DNA [19] = assay: Binding affinity to calf thymus DNA assessed as stoichiometry ratio of compound-DNA complex formation by scatchard plot analysis; details: Bos taurus
K562 [20] = assay: Induction of apoptosis in human K562 cells assessed as early apoptotic cells at 1.6 uM measured after 24 hrs by Annexin V-APC/PI staining based flow cytometry assay (reference value: 3.4%); assay type: functional
K562 [21] = assay: Induction of cell cycle arrest in human K562 cells assessed as accumulation at G2/M phase at 2XIC50 measured after 48 hrs by propidium iodide/RNase staining based flow cytometry; assay type: functional
NCI-H460 = assay: Antiproliferative activity against human NCI-H460 cells assessed as inhibition of cell proliferation measured after 72 hrs by MTT assay; assay type: functional, cell-based; details: NCI-H460, 72 h
[22] = Resistance index, ratio of IC50 for human P-gp-positive/Doxorubicin-resistant K562/4 cells to IC50 for human K562 cells; assay type: functional
[23] = Selectivity index, ratio of IC50 for human TERT-RPE1 cells to IC50 for human HL-60 cells; assay type: toxicity; details: TERT-RPE1 cells and HL-60 cells, read-out: Ratio IC50
K562 [24] = assay: Induction of apoptosis in human K562 cells assessed as viable cells at 1.6 uM measured after 48 hrs by Annexin V-APC/PI staining based flow cytometry assay (reference value: 85.9%); assay type: functional; details: read-out: Activity
[25] = Selectivity index, ratio of IC50 for human TERT-RPE1 cells to IC50 for human K562 cells; assay type: toxicity; details: TERT-RPE1 cells and K562 cells, read-out: Ratio IC50
Calf thymus DNA [26] = assay: Binding affinity to calf thymus double stranded DNA at 10 uM measured after 5 mins by flourescence spectroscopy method; details: Bos taurus
K562 [27] = assay: Induction of apoptosis in human K562 cells assessed as late apoptotic cells at 1.6 uM measured after 48 hrs by Annexin V-APC/PI staining based flow cytometry assay (reference value: […]); assay type: functional
Calf thymus DNA [28] = assay: Binding affinity to calf thymus DNA assessed as dissociation constant by scatchard plot analysis; set-up: species or system Bos taurus
K562 [29] = assay: Induction of apoptosis in human K562 cells assessed as late apoptotic cells at 1.6 uM measured after 24 hrs by Annexin V-APC/PI staining based flow cytometry assay (reference value: […]); assay type: functional

## N[C@H]1CCN(C(=O)c2coc3c(O)c4c(c(O)c23)C(=O)c2ccccc2C4=O)C1
[1]
  selectivity ratio: 9
K562 [2]
  IC50: 900 nM
[3]
  Ratio IC50: 9
[4]
  selectivity ratio: 9
Calf thymus DNA [5]
  Kb: 0.9 10^5/M
TERT-RPE1
  IC50: 11100 nM
[6]
  IC50: 1400 nM
K562 [7]
  Activity: 38.6%
K562 [8]
  Activity: 0.5%
CAPAN-1
  IC50: 300 nM
HCT-116 [9]
  IC50: 1300 nM
[10]
  LD50 at 120 h: 52 mg/kg
HCT-116 [11]
  IC50: 1200 nM
K562 [12]
  Activity: 20.6%
K562 [13]
  Activity: Active
HL-60
  IC50: 500 nM
K562 [14]
  viability at 1.6 µM: 70%
Calf thymus DNA [15]
  Activity: Active
[16]
  inhibition: Active
[17]
  Drug uptake: Active
[18]
  Drug uptake: Active
Calf thymus DNA [19]
  Ratio: 2
K562 [20]
  Activity: 1.3%
K562 [21]
  Activity: Active
NCI-H460
  IC50: 400 nM
[22]
  Ratio IC50: 1.5
[23]
  selectivity ratio: 9
K562 [24]
  viability at 1.6 µM: 51.9%
[25]
  selectivity ratio: 9
Calf thymus DNA [26]
  Activity: Active
K562 [27]
  Activity: 9.1%
Calf thymus DNA [28]
  Kd: 11000 nM
K562 [29]
  Activity: 8.1%
